# Test system: ARNT2 mRNA
# Test: Stimulation of the expression of ARNT2 mRNA in normal human keratinocytes (real-time RT-PCR)
# Format: cell-based
# Conditions: 0.001% active agent (w/w), 24 hours, fold vs untreated control (1.00), housekeeping gene RPLPO
# Procedure: Keratinocytes derived from neonatal foreskins (Invitrogen, CA, USA) were cultured in 6-well plates in keratinocyte culture medium with supplement (EpiLife, Invitrogen). After culturing for 24 hours at 37° C., the 70% confluent cells were washed with PBS buffer (Invitrogen, CA) and incubated with basic keratinocytes culture medium (EpiLife, Invitrogen) containing the active agent to be tested, for 24 hours, at increasing concentrations. The cytotoxicity of the active agent was evaluated in human cultured keratinocytes before testing the activity.
# Keratinocytes were treated with various concentrations of active agent in triplicates for 24 hours. The mRNA was isolated using the Qiagen RNeasy kit (Qiagen, CA) and quantified using the QuantIt kit (Invitrogen, CA).
# The PCR primers were obtained from Applied Biosystems (Applied Biosystems, CA). The housekeeping gene used was RPLPO.
# To quantify the expression of messenger RNA of ARNT2 in a treated sample relative to an untreated sample, real-time polymerase chain amplification (RT-PCR) was performed. […]
# The relative quantification of the expression of the target gene was performed using the Pfaffl mathematical model (Pfaffl, M W, Nucleic Acids Res. 29(9), p. E45, 2001). […]
# The effect of this botanical extract on the expression of the ARNT2 mRNA was evaluated on cultured keratinocytes. […]
smiles,measurement,value
"CC(=O)Oc1cc(C=Cc2ccc(OC(=O)CCCCC3CCSS3)cc2)cc(OC(C)=O)c1 (stereo not shown) [Active agent tested, resveratrol 3,5-diacetate-4′-lipoate]",Stimulation of ARNT2 mRNA,1.81

# Source: patent US20120237941A1, “METHOD FOR SCREENING ACTIVE AGENTS THAT STIMULATE THE EXPRESSION OF ARNT2 TO IMPROVE THE SKIN'S BARRIER FUNCTION” (CHANEL PARFUMS BEAUTE, priority 2009, published 2012)
